Results taken from PubChem BioAssay AID248 (DTP/NCI, 2004).
Values joined by “and” are separate entries in the source; they are usually repeats but may differ in a detail not shown here. Equal values may be shown once. Inconclusive results and toxic doses are left out. No stated cut-off is given here; in the data, active means T/C of 150% or more; inactive means T/C below 125%.

System: L1210 leukemia ip in BDF1 mice, survival T/C
Assay: NCI In Vivo Anticancer Drug Screen. Data for tumor model L1210 Leukemia (intraperitoneal) in B6D2F1 (BDF1) mice
Conditions: endpoint: mean survival time, higher = longer survival
Summary of the method: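 Survival endpoint. Drug-treated group vs vehicle group, expressed as T divided by C. Tumor passaged by transplantation.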

[1] = dose: 100.0 mg/kg/injection, schedule: Q04DX002 (ip), vehicle: Klucel (hydroxypropylcellulose) (HPC)
[2] = dose: 200.0 mg/kg/injection, schedule: Q04DX002 (ip), vehicle: Klucel (hydroxypropylcellulose) (HPC)
[3] = dose: 400.0 mg/kg/injection, schedule: Q04DX002 (ip), vehicle: Klucel (hydroxypropylcellulose) (HPC)
[4] = dose: 200.0 mg/kg/injection, schedule: Q01DX009 (ip), vehicle: saline with Tween-80
[5] = dose: 100.0 mg/kg/injection, schedule: Q01DX001 (ip), vehicle: saline
[6] = dose: 200.0 mg/kg/injection, schedule: Q01DX001 (ip), vehicle: saline
[7] = dose: 100.0 mg/kg/injection, schedule: Q04DX003 (ip), vehicle: Klucel (hydroxypropylcellulose) (HPC)
[8] = dose: 200.0 mg/kg/injection, schedule: Q04DX003 (ip), vehicle: Klucel (hydroxypropylcellulose) (HPC)
[9] = dose: 400.0 mg/kg/injection, schedule: Q04DX003 (ip), vehicle: Klucel (hydroxypropylcellulose) (HPC)
[10] = dose: 100.0 mg/kg/injection, schedule: Q04DX003 (ip), vehicle: saline with Tween-80
[11] = dose: 200.0 mg/kg/injection, schedule: Q04DX003 (ip), vehicle: saline with Tween-80
[12] = dose: 100.0 mg/kg/injection, schedule: Q01DX009 (ip), vehicle: saline
[13] = dose: 200.0 mg/kg/injection, schedule: Q01DX009 (ip), vehicle: saline
[14] = dose: 100.0 mg/kg/injection, schedule: Q04DX003 (ip), vehicle: saline
[15] = dose: 200.0 mg/kg/injection, schedule: Q04DX003 (ip), vehicle: saline
[16] = dose: 400.0 mg/kg/injection, schedule: Q04DX003 (ip), vehicle: saline
[17] = dose: 100.0 mg/kg/injection, schedule: Q01DX001 (ip), vehicle: Klucel (hydroxypropylcellulose) (HPC)
[18] = dose: 200.0 mg/kg/injection, schedule: Q01DX001 (ip), vehicle: Klucel (hydroxypropylcellulose) (HPC)
[19] = dose: 400.0 mg/kg/injection, schedule: Q01DX001 (ip), vehicle: Klucel (hydroxypropylcellulose) (HPC)
[20] = dose: 75.0 mg/kg/injection, schedule: Q01DX001 (ip), vehicle: saline
[21] = dose: 150.0 mg/kg/injection, schedule: Q01DX001 (ip), vehicle: saline
[22] = dose: 400.0 mg/kg/injection, schedule: Q01DX001 (ip), vehicle: saline

Measured: T/C

COc1ccccc1C(=O)Nc1ccccc1SC
inactive: [1] 93 % of control | [2] 93 % of control | [3] 93 % of control

CC(C)CC(NC(=O)c1ccccc1)C(=O)O (configuration not stated)
inactive: [4] 88 % of control | dose: 264.0 mg/kg/injection, schedule: Q01DX009 (ip), vehicle: saline with Tween-80 97 % of control | dose: 600.0 mg/kg/injection, schedule: Q01DX009 (ip), vehicle: saline with Tween-80 92 % of control

CC1COCC(C)N1CC(=O)Nc1ccc(S(=O)(=O)c2ccc(NC(=O)CN3C(C)COCC3C)cc2)cc1 (configuration not stated)
inactive: dose: 100.0 mg/kg/injection, schedule: Q01DX001 (ip), vehicle: carboxymethylcellulose (CMC) 107 % of control | dose: 200.0 mg/kg/injection, schedule: Q01DX001 (ip), vehicle: carboxymethylcellulose (CMC) 95 % of control | dose: 400.0 mg/kg/injection, schedule: Q01DX001 (ip), vehicle: carboxymethylcellulose (CMC) 95 % of control

CN(C)c1ccc(S(=O)(=O)c2ccc(N(C)C)c([N+](=O)[O-])c2)cc1[N+](=O)[O-]
inactive: dose: 100.0 mg/kg/injection, schedule: Q04DX002 (ip), vehicle: DMSO 107 % of control | dose: 200.0 mg/kg/injection, schedule: Q04DX002 (ip), vehicle: DMSO 103 % of control | dose: 400.0 mg/kg/injection, schedule: Q04DX002 (ip), vehicle: DMSO 103 % of control

CNCCOCc1ccccc1
inactive: [5] 96 % of control | [6] 91 % of control

CC1CC(O)=C(c2ccccc2)P1(=O)Cc1ccccc1 (configuration not stated)
inactive: [7] 95 % of control | [8] 95 % of control | [9] 89 % of control

CC1(C)N=C(N)N=C(N)N1c1ccc(OCCCNS(=O)(=O)c2ccc(S(=O)(=O)F)cc2)c(Cl)c1
inactive: dose: 37.5 mg/kg/injection, schedule: Q04DX003 (ip), vehicle: saline with Tween-80 103 % of control | dose: 75.0 mg/kg/injection, schedule: Q04DX003 (ip), vehicle: saline with Tween-80 108 % of control | dose: 150.0 mg/kg/injection, schedule: Q04DX003 (ip), vehicle: saline with Tween-80 107 % of control

O=S(=O)(NC(CCl)=NC1CCCCC1)c1ccccc1
inactive: [1] 89 % of control | [2] 100 % of control | [3] 104 % of control

O=c1cnc2ccccc2[nH]1
inactive: [10] 108 % of control | [11] 97 % of control

CN(C)CCN(C)CCN(C)CCN(C)C
inactive: [12] 95 % of control | [13] 100 % of control

C=CC1CC(=O)N1C (configuration not stated)
inactive: [14] 100 % of control | [15] 110 % of control | [16] 112 % of control

CC(=O)Nc1ccc(/C=C/C(=O)c2ccc(C)cc2)cc1
inactive: [17] 101 % of control | [7] 104 % of control | [18] 100 % of control | [8] 103 % of control | [19] 103 % of control | [9] 94 % of control

CCCCCCC(=O)CCCC
inactive: dose: 100.0 mg/kg/injection, schedule: Q01DX009 (ip), vehicle: saline with Tween-80 102 % of control | [14] 98 % of control | [4] 111 % of control | [15] 88 % of control | dose: 400.0 mg/kg/injection, schedule: Q01DX009 (ip), vehicle: saline with Tween-80 98 % of control | [16] 94 % of control

CSc1nsc2nnc(N)n12
inactive: [20] 89 % of control | [21] 102 % of control

Nc1ncnc2nc(-c3ccccc3)[nH]c12
inactive: dose: 25.0 mg/kg/injection, schedule: Q04DX002 (ip), vehicle: Klucel (hydroxypropylcellulose) (HPC) 102 % of control | dose: 50.0 mg/kg/injection, schedule: Q04DX002 (ip), vehicle: Klucel (hydroxypropylcellulose) (HPC) 94 % of control | [1] 91 % of control

CCCCCCCCCCCCOc1ccc2ccccc2c1
inactive: [10] 97 % of control | [11] 95 % of control | dose: 400.0 mg/kg/injection, schedule: Q04DX003 (ip), vehicle: saline with Tween-80 108 % of control

CS(=O)(=O)OCCCCCCOCCCCOCCCCOCCCCCCOS(C)(=O)=O
inactive: [17] 92 % of control | [18] 93 % of control | [19] 93 % of control

CN1NC(=O)C2CCCC1O2 (configuration not stated)
inactive: [5] 95 % of control | [6] 105 % of control | [22] 94 % of control

CC(C)CCN
inactive: [5] 115 % of control | [12] 98 % of control and 104 % of control | dose: 100.0 mg/kg/injection, schedule: Q04DX002 (ip), vehicle: saline 102 % of control and 103 % of control | [14] 98 % of control | [6] 112 % of control | [13] 107 % of control and 112 % of control | dose: 200.0 mg/kg/injection, schedule: Q04DX002 (ip), vehicle: saline 103 % of control and 108 % of control | [15] 98 % of control | [22] 107 % of control | dose: 400.0 mg/kg/injection, schedule: Q01DX009 (ip), vehicle: saline 114 % of control and 117 % of control | dose: 400.0 mg/kg/injection, schedule: Q04DX002 (ip), vehicle: saline 101 % of control and 102 % of control | [16] 112 % of control

C[CH2][Sn]([CH2]C)([CH2]C)[S]Cc1ccccc1
inactive: dose: 1.56 mg/kg/injection, schedule: Q01DX009 (ip), vehicle: saline with Tween-80 97 % of control | dose: 3.13 mg/kg/injection, schedule: Q01DX009 (ip), vehicle: saline with Tween-80 95 % of control | dose: 6.25 mg/kg/injection, schedule: Q01DX009 (ip), vehicle: saline with Tween-80 87 % of control

C=CCC1(C(C)CCC)C(=O)NC(=S)NC1=O (configuration not stated)
inactive: [20] 100 % of control | [21] 98 % of control | dose: 300.0 mg/kg/injection, schedule: Q01DX001 (ip), vehicle: saline 90 % of control

CC(C)CC1NC(=O)N(C)C1=O (configuration not stated)
inactive: dose: 75.0 mg/kg/injection, schedule: Q01DX001 (ip), vehicle: carboxymethylcellulose (CMC) 95 % of control | dose: 150.0 mg/kg/injection, schedule: Q01DX001 (ip), vehicle: carboxymethylcellulose (CMC) 100 % of control | dose: 300.0 mg/kg/injection, schedule: Q01DX001 (ip), vehicle: carboxymethylcellulose (CMC) 100 % of control

CC(C)CCCC(=O)O
inactive: [5] 97 % of control | [6] 100 % of control | [22] 89 % of control

CC(=O)N(C)c1ccc(NC(=O)Nc2cccc(F)c2)cc1
inactive: dose: 12.5 mg/kg/injection, schedule: Q01DX009 (ip), vehicle: saline with Tween-80 104 % of control | dose: 25.0 mg/kg/injection, schedule: Q01DX009 (ip), vehicle: saline with Tween-80 105 % of control | dose: 50.0 mg/kg/injection, schedule: Q01DX009 (ip), vehicle: saline with Tween-80 96 % of control

COc1ccccc1[As](=O)(O)CC(O)COc1ccccc1 (configuration not stated)
inactive: dose: 25.0 mg/kg/injection, schedule: Q04DX003 (ip), vehicle: saline with Tween-80 91 % of control

Nc1nc(N)c2nc(CSc3ccccc3)cnc2n1
inactive: dose: 20.0 mg/kg/injection, schedule: Q01DX009 (ip), vehicle: saline with Tween-80 97 % of control | dose: 40.0 mg/kg/injection, schedule: Q01DX009 (ip), vehicle: saline with Tween-80 97 % of control | dose: 80.0 mg/kg/injection, schedule: Q01DX009 (ip), vehicle: saline with Tween-80 94 % of control
